Laboratory results published in patent US10647680B2, “Urea compound, preparation method therefor and medical use thereof” (Ancureall Pharmaceutical (Shanghai) Co., Ltd., priority 2016, dated 2020).
Where two headings read alike, the source gives them in different places.

Key:
P-gp = experiment: Bidirectional transmembrane transport and P-gp efflux in Caco-2 monolayer cell model; format: in vitro ADME; conditions: human, Caco-2, pH 7.4; Concentration 10, Inhibitor − (without P-gp inhibitor GF120918); read-out: Efflux Ratio Papp (B→A)/Papp (A→B)
Method: (§1) The Caco-2 cell transport experiment was performed using compound 77 of the present invention as a representative example.
(§2) Main procedure: Caco-2 cells (ATCC, HTB-37) were cultured in high-glucose DMEM culture medium (Hyclone) containing 10% fetal calf serum (GIBCO) and penicillin-streptomycin (100 units/mL each) (Sigma). Cells were cultured at 37° C. in an incubator containing 5% CO2. In the transport experiment, Caco-2 cells were inoculated on a filter of a 12-well Transwell plate at a density of 2×10^5 cells/well (Coming Costar, catalog #3401, 1.12 cm^2, 0.4 um of pore size). After inoculation, the Caco-2 cells would form intact cell monolayers after 21 days, including P-gp efflux transporter expression and transepithelial cell resistance (TEER) formation. During the period, the culture medium was replaced once every other day. The volume of culture medium at the transwell membrane Apical Side (A) and Basolateral Side (B) were 0.5 mL and 1.5 mL, respectively. Before the transport experiment (day 21), the preheated HBSS buffer (137 mM NaCl, 4.17 mM NaHCO3, 0.34 mM Na2HPO4, 5.37 mM KCl, 0.44 mM KH2PO4, 1.26 mM CaCl2, 0.49 mM MgCl2, 0.41 mM MgSO4, 5.55 Mm D-Glucose, 10 mM HEPES, pH 7.4) was used firstly to wash Caco-2 cell monolayers for three times, and placed to at 37° C. for incubation for 30 minutes, then TEER values were determined using a cell resistometer (Millicell-ERS2) to confirm the integrity and compactness of the cell monolayers. When the HBSS buffer solution on the transmembrane A-side or B-side was replaced with the test compound, the transport experiment was started.
(§3) Finally, after incubation at 37° C. for 2 hours, the transport experiment was terminated and 50 uL of sample solution was taken from both sides of the Transwell filter membrane separately and added to 100 μL of acetonitrile comprising internal standard compound and mixed well, then centrifuged at 13000 rpm, 4° C. for 10 min, and finally 10 μL (or a specific volume) of supernatant was used for LC-MS/MS sample analysis.
(§4) For each compound, transport experiments in the A-B and B-A directions had three replicates, i.e. n=3.
(§5) LC-MS/MS Sample Analysis: The high performance liquid chromatography (HPLC) system used in this research consisted of two pumps (Shimadzu LC-20AD) and an autosampler (Shimadzu SIL-20AC). The HPLC system was connected in series with an API 4000 triple quadrupole mass spectrometer (Applied Biosystems). The API 4000 triple quadrupole mass spectrometer was equipped with an electrospray ionization (ESI) source. Ultrapurified nitrogen was used as curtain gas, GAS1, GAS2, and collision gas, at flow rates of 20 L/h, 55 L/h, 65 L/h, and 6 L/hr, respectively. The atomization temperature of the ion source was set to 500° C. Data was collected using the software Analyst 1.5.
(§6) Data analysis: The apparent permeability coefficient (Papp) can be calculated by the rate at which a compound permeates the monolayer of Caco-2 cells. Its value is related to the absorption of the compound in vivo. After concentrations at A side and B side were determined by LC-MS/MS, the Papp value in the A-B or B-A direction was calculated according to the following formula: Papp(A→B) or Papp(B→A)=(dQ/dt)/(A*C0)=(C2h*V)/(t*π2*C0)
(§7) In the above formula, dQ/dt is the permeation rate, i.e. the amount of compound that permeated in the dt time, C0 is the initial concentration of drug on the administration side, and A is the surface area of the cell monolayer, i.e. the membrane area.
(§8) After obtaining the Papp (A→B) and Papp (B→A) values of the compound, the Efflux Ratio (ER) of the compound could be calculated by the following formula: Efflux Ratio(ER)=Papp(B−A)/Papp(A−B).
(§9) When the ratio of efflux was >2, the compound could be considered as the substrate of the efflux transporter.

[1] = as above; format: in vitro ADME; conditions: human
Method: as §1, §2, §3, §4, §5, §6, §7, §8, §9

Compound: COCCOc1ccc2c(c1)ncn2-c1ccc(NC(=O)Nc2cc(C(C)(C)C)n[nH]2)cc1 [Compound 77, 1-(5-tert-butyl-2H-pyrazol-3-yl)-3-{4-[5-(2-methoxyl-ethoxyl)-benzimidazol-1-yl]-phenyl}-urea]
- efflux ratio at 2 h (P-gp): 5.8
- Papp A→B at 2 h ([1]; Caco-2, pH 7.4, Caco-2 monolayer cell model, transmembrane permeability, read-out: Papp(A→B) value (conclusions under the table)): 1 to 10 ×10⁻⁶ cm/s
- Papp B→A at 2 h ([1]; Caco-2, pH 7.4, Concentration 10, Inhibitor − (without P-gp inhibitor GF120918)): 13.1 ×10⁻⁶ cm/s
- Papp A→B at 2 h ([1]; Caco-2, pH 7.4, Concentration 10, Inhibitor − (without P-gp inhibitor GF120918), read-out: Papp (A→B)): 2.24 ×10⁻⁶ cm/s
